Test system: HaCaT keratinocytes
Test: Co-staining with organelle markers, co-localisation (PCC)
Format: cell-based
Conditions: 1 μM compound, 30 minutes, BODIPY ER-Tracker Red
Experimental: To study the localisation of compounds in biological cells, co-staining of compounds of formula I with specific organelle markers (fluorescent dyes and antibodies) within biological cells was conducted. The following compounds were studied: compounds 6, 7, 12, 13, 14 and 15. HaCaT keratinocyte cell lines were used for the following experimental procedures. The cells were incubated in cell culture media (94% Dulbecco's Modified Eagle Medium (DMEM), 5% Foetal Bovine Serum (FBS) and 1% Penicillin Streptomycin solution (Pen-Strep). The cells were plated in 8-well plates, at a concentration of 25,000 cells per ml. 200 μl of cell suspension was added to each well, and the cells were incubated for 2 days before staining and imaging was carried out. In order to visualise the mitochondria, cells were probed with the mitochondrial dye MitoTracker® Deep Red. Cells to be stained were incubated with 200 μl MitoTracker® Deep Red solution (200 nM MitoTracker® and 1 μM Formula I compound in cell culture media) per well (N=3) for 30 minutes. Nile Red was used to identify lipids within the cells. 200 μl Nile Red Lipophilic dye (10 μg/ml Nile Red and 1 μM Formula I compound in cell culture media) was added to each well (N=3) and incubated for 30 minutes. For the detection of lysosomes within the cells, LysoTracker® Red DND-99 dye was used. 200 μl LysoTracker® Red DND-99 (50 nM LysoTracker® and 1 μM Formula I compound solution in cell culture media) was added to each well (N=3) and incubated for 30 minutes. For visualisation of the endoplasmic reticulum (ER), cells were stained with BODIPY® ER-Tracker® Red. 200 μl BODIPY ER-Tracker® Red (1 μM BODIPY® and 1 μM Formula I compound solution in cell culture media) was added to each well (N=3) and incubated for 30 minutes. Following incubation, the cell culture media containing dye was removed, and cells were washed twice with 200 μl phosphate buffered saline (PBS). After washing, 200 μl PBS was added into each well for imaging. For visualisation of the nuclear lamina, cells were probed with an anti-lamin A/C antibody. The cells were plated on 22×22 mm cover slips (10,000 cells/ml) and incubated for 2 days before staining. The cells were washed with PBS to remove excess media before staining. The cells were fixed with 4% paraformaldehyde (PFA) for 10 minutes at room temperature, before being washed twice in PBS for 5 minutes. Following washing, the cells were permeabilised in 0.4% Triton X-100 in PBS for 10 minutes. The cells were subsequently washed three times in PBS for 5 minutes, before being incubated in blocking buffer (1% BSA, 0.1% fish gelatine and 0.1% Triton X-100 in PBS) for 15 minutes at room temperature. The cells were incubated in primary antibody (mouse anti-lamin A/C IgG in blocking buffer) for 1 hour at room temperature. The cells were then washed twice in blocking buffer and incubated in secondary antibody (anti-mouse Alexa-594 IgG in blocking buffer) for 30 minutes at room temperature. Cells were washed twice in PBS for 10 minutes at room temperature. For cell staining with compounds of formula I, 5 μM of the compound of formula I in PBS was added to the cells for 30 minutes at room temperature. Cells were then washed five times for 5 minutes in PBS. Following washing, the cells were mounted onto non-charged microscopy slides using 6 μl Mowiol® per cover slip as mounting media. A Zeiss 880 confocal microscope was used for all the imaging work. [table] Image) Coloc2 software was used to calculate co-localization statistics between the compounds of formula I and the organelle marker images. The background was subtracted from each image and a region of interest (ROI) was used to target the analysis. The point spread function (PSF) of each image was calculated as 2.0 and Coastes' iterations was set to 100. The statistic quantified was the Pearson's Correlation Coefficient (PCC). PCC gives a number ranging from +1 to −1:1=perfect co-localisation; 0=no relationship; and, −1=perfect anti-co-localisation. […]

For `COC(=O)/C=C/c1ccc(C#Cc2ccc(N(C)CCN)cc2)cc1` [Compound 12, methyl (2E)-3-[4-(2-{4-[(2-aminoethyl)(methyl)amino]phenyl}ethynyl)phenyl]prop-2-enoate], the “average PCC Value with BODIPY ER-Tracker” value was 0.34.
